From ChEMBL document CHEMBL1129230, “Inhibitory effects of scopadulcic acid B and its derivatives on bone resorption and osteoclast formation in vitro” (1996) come the findings set out here.

Holding throughout (type): functional
For assay [1], the species on record is Mus musculus. The assay can be described thus: Inhibition of PTH-stimulated bone resorption at concentration of 2 uM.
The species named for assay [2] is Mus musculus. The assay can be described thus: Inhibition of PTH-stimulated bone resorption at concentration of 5 uM.
The species entered for assay [3] is Mus musculus. The assay can be described thus: Inhibition of PTH-stimulated bone resorption at concentration of 10 uM.
Assay [4] is filed under the species Mus musculus. As to the kind of experiment: Inhibition of PTH-stimulated osteoclast-like cell formation at concentration 10 uM.
Assay [5] is filed under the species Mus musculus. The assay can be described thus: Inhibition of PTH-stimulated osteoclast-like cell formation at concentration 2 uM.
Assay [6] is filed under the species Mus musculus. The assay can be described thus: Inhibition of PTH-stimulated osteoclast-like cell formation at concentration 5 uM.
Assay [7] is filed under the species Mus musculus. As to the kind of experiment: compound was evaluated in vitro for the inhibition of PTH-stimulated osteoclast-like cell formation at concentration 0.05 uM.
The species entered for assay [8] is Mus musculus. As to the kind of experiment: compound was evaluated in vitro for the inhibition of PTH-stimulated osteoclast-like cell formation at concentration 0.1 uM.
The species named for assay [9] is Mus musculus. The assay can be described thus: compound was evaluated in vitro for the inhibition of PTH-stimulated osteoclast-like cell formation at concentration 0.5 uM.
Assay [10] is filed under the species Mus musculus. As to the kind of experiment: compound was evaluated in vitro for the inhibition of PTH-stimulated osteoclast-like cell formation at concentration 2 uM.
The species entered for assay [11] is Mus musculus. The assay can be described thus: compound was evaluated in vitro for the inhibition of PTH-stimulated osteoclast-like cell formation at concentration 5 uM.
The species named for assay [12] is Mus musculus. The assay can be described thus: compound was evaluated in vitro for the inhibition of PTH-stimulated osteoclast-like cell formation at concentration 10 uM.

As usually defined, the Inhibition is the change of the read-out against control, counted positive when it falls. What is called inhibition is the change of the read-out against control, counted positive when it falls. As for `C[C@]12CC[C@]3(C1)[C@H](C[C@H]2O)C[C@@H](OC(=O)c1ccccc1)[C@H]1[C@](C)(C(=O)O)CCC[C@@]13C`, the figures for the Inhibition in the assay filed under Mus musculus [1], in the assay filed under Mus musculus [2] and in the assay listed under Mus musculus [3] were 45%, 40% and 37%, respectively. Moreover, the inhibition at 10 µM in the assay listed under Mus musculus [4] worked out at 104%. The inhibition at 2 µM in the assay filed under Mus musculus [5] turned out to be 17%. Moreover, the inhibition at 5 µM in the assay listed under Mus musculus [6] came out at 87%.
`COC(=O)[C@]1(C)CCC[C@@]2(C)[C@H]1[C@H](OC(=O)c1ccccc1)C[C@H]1C[C@@H](OC(C)=O)[C@@]3(C)CC[C@]12C3`: the figures for the Inhibition in the assay filed under Mus musculus [1], in the assay filed under Mus musculus [2] and in the assay filed under Mus musculus [3] were 55%, 40% and 37%, respectively. Besides, the inhibition at 10 µM in the assay listed under Mus musculus [4] was found to be 112%. Moreover, the inhibition at 2 µM in the assay listed under Mus musculus [5] turned out to be 60%. Besides, the inhibition at 5 µM in the assay listed under Mus musculus [6] is 70%.
Turning to `CC(=O)O[C@@H]1C[C@H]2CC(=O)[C@@]3(C)CC[C@@]2(C3)[C@@]2(C)CCC[C@@](C)(C(=O)O)[C@H]12`, the Inhibition in the assay filed under Mus musculus [1] is 33%; in the assay filed under Mus musculus [2], 40%; in the assay filed under Mus musculus [3] it was 47%. Also, the inhibition at 10 µM in the assay listed under Mus musculus [4] was 37%. Also, the inhibition at 2 µM in the assay filed under Mus musculus [5] is -8%. For the same compound, in the assay listed under Mus musculus [6], the inhibition at 5 µM was determined as 27%.
Consider `C[C@]12CC[C@]3(C1)[C@@H](C[C@@H](OC(=O)c1ccccc1)[C@H]1[C@](C)(C(=O)O)CCC[C@@]13C)C[C@@H]2O`, for which the Inhibition in the assay filed under Mus musculus [1] came out at 35%; in the assay filed under Mus musculus [2], 39%; in the assay filed under Mus musculus [3] it was 70%. For the same compound, the inhibition at 10 µM in the assay listed under Mus musculus [4] turned out to be 93%. For the same compound, the inhibition at 2 µM in the assay filed under Mus musculus [5] was found to be 24%. Also, in the assay listed under Mus musculus [6], the inhibition at 5 µM is 75%.
`CC(=O)O[C@H]1C[C@@H]2C[C@@H](OC(=O)c3ccccc3)[C@H]3[C@](C)(C(=O)O)CCC[C@]3(C)[C@]23CC[C@@]1(C)C3`: the Inhibition in the assay listed under Mus musculus [1] is 21%; in the assay listed under Mus musculus [2], 18%; in the assay filed under Mus musculus [3], 8%.
The matching figures for `COC(=O)[C@]1(C)CCC[C@@]2(C)[C@H]1[C@H](OC(=O)c1ccccc1)C[C@H]1C[C@@H](O)[C@@]3(C)CC[C@]12C3`: 22%, 29% and 49%.
For `C[C@]12CC[C@]3(C1)C(CC2=O)C[C@@H](OC(=O)c1ccccc1)C1[C@](C)(CO)CCC[C@@]13C` (stereo partly drawn), the Inhibition worked out at 106% in the assay filed under Mus musculus [1], 99% in the assay filed under Mus musculus [2] and 99% in the assay listed under Mus musculus [3]. The inhibition at 0.05 µM in the assay filed under Mus musculus [7] was found to be 44%. In addition, in the assay filed under Mus musculus [8], the inhibition at 0.1 µM worked out at 115%. Moreover, the inhibition at 0.5 µM in the assay listed under Mus musculus [9] was determined as 137%. The inhibition at 10 µM in the assay filed under Mus musculus [4] came out at 137%. In addition, the inhibition at 2 µM in the assay filed under Mus musculus [5] came to 137%. The inhibition at 5 µM in the assay filed under Mus musculus [6] turned out to be 137%.
For the compound `C[C@]12CC[C@]3(C1)[C@@H](C[C@@H](O)[C@H]1[C@](C)(CO)CCC[C@@]13C)C[C@H]2O`, the Inhibition is listed as -8% in the assay listed under Mus musculus [1], 6% in the assay filed under Mus musculus [2] and -17% in the assay filed under Mus musculus [3].
Consider `C[C@@]1(CO)CCC[C@@]2(C)C1[C@H](OC(=O)c1ccccc1)C[C@H]1C[C@H](O)[C@@]3(C)CC[C@]12C3` (stereo partly drawn), for which the figures for the Inhibition in the assay listed under Mus musculus [1] and in the assay filed under Mus musculus [2] were -51% and 99%, respectively. In addition, the inhibition at 2 µM in the assay listed under Mus musculus [10] is 24%. In addition, the inhibition at 5 µM in the assay listed under Mus musculus [11] was 75%. Moreover, the inhibition at 10 µM in the assay listed under Mus musculus [12] was 94%.
Turning to `CC(=O)OC[C@]1(C)CCC[C@@]2(C)C1[C@H](O)CC1C[C@H](OC(C)=O)[C@@]3(C)CC[C@]12C3` (stereo partly drawn), the Inhibition in the assay filed under Mus musculus [1] was determined as 1%; in the assay listed under Mus musculus [2] it was 23%; in the assay listed under Mus musculus [3] it was 11%.
Take `COC(=O)[C@]1(C)CCC[C@@]2(C)[C@H]1[C@H](OC(=O)c1ccccc1)C[C@H]1CC(=O)[C@@]3(C)CC[C@]12C3`: the Inhibition worked out at 78% in the assay filed under Mus musculus [1], 74% in the assay listed under Mus musculus [2] and 110% in the assay listed under Mus musculus [3]. For the same compound, the inhibition at 10 µM in the assay filed under Mus musculus [4] came out at 118%. Moreover, in the assay filed under Mus musculus [5], the inhibition at 2 µM came out at 70%. Besides, the inhibition at 5 µM in the assay filed under Mus musculus [6] was 91%.
As to `C[C@]12CC[C@]3(C1)C(CC2=O)C[C@@H](O)C1[C@](C)(C(=O)O)CCC[C@@]13C` (stereo partly drawn), the figures for the Inhibition in the assay filed under Mus musculus [1], in the assay listed under Mus musculus [2] and in the assay listed under Mus musculus [3] were 43%, 92% and 94%, respectively. Besides, the inhibition at 10 µM in the assay listed under Mus musculus [4] turned out to be 20%. The inhibition at 2 µM in the assay listed under Mus musculus [5] is 0%. Besides, the inhibition at 5 µM in the assay listed under Mus musculus [6] worked out at 10%.
In the case of `COC(=O)[C@]1(C)CCC[C@@]2(C)[C@H]1[C@H](OC(=O)c1ccccc1)C[C@H]1C[C@H](O)[C@@]3(C)CC[C@]12C3`, the Inhibition in the assay listed under Mus musculus [1] is listed as -23%; in the assay listed under Mus musculus [2], -17%; in the assay filed under Mus musculus [3] it was -10%.
The matching figures for `C[C@]12CC[C@]3(C1)[C@H](CC2=O)C[C@@H](OC(=O)c1ccccc1)[C@H]1[C@@](CO)(C(=O)O)CCC[C@@]13C` [SCOPADULCIC ACID A]: 46%, 24% and -14%.
In the case of `C[C@]12CC[C@]3(C1)[C@H](CC2=O)C[C@@H](OC(=O)c1ccccc1)[C@H]1[C@](C)(C(=O)O)CCC[C@@]13C` [SCOPADULCIC ACID B], the Inhibition amounted to 28% in the assay listed under Mus musculus [1], 76% in the assay listed under Mus musculus [2] and 94% in the assay filed under Mus musculus [3]. Moreover, in the assay filed under Mus musculus [4], the inhibition at 10 µM amounted to 87%. For the same compound, in the assay filed under Mus musculus [5], the inhibition at 2 µM came out at 59%. For the same compound, the inhibition at 5 µM in the assay filed under Mus musculus [6] amounted to 74%.
In the case of `CC(=O)OC[C@]1(C)CCC[C@@]2(C)[C@H]1[C@H](OC(=O)c1ccccc1)C[C@H]1CC(=O)[C@@]3(C)CC[C@]12C3`, the Inhibition in the assay listed under Mus musculus [1] stood at 12%; in the assay filed under Mus musculus [2], 107%; in the assay listed under Mus musculus [3], 125%. For the same compound, the inhibition at 10 µM in the assay filed under Mus musculus [4] was 105%. In addition, the inhibition at 2 µM in the assay listed under Mus musculus [5] is 45%. The inhibition at 5 µM in the assay listed under Mus musculus [6] came out at 90%.
In the case of `COC(=O)[C@]1(C)CCC[C@@]2(C)[C@H]1[C@H](OC(=O)c1ccccc1)C[C@H]1C[C@H](OC(C)=O)[C@@]3(C)CC[C@]12C3`, the Inhibition in the assay filed under Mus musculus [1] is recorded as 38%; in the assay filed under Mus musculus [2] it was 51%; in the assay filed under Mus musculus [3], 55%. For the same compound, the inhibition at 10 µM in the assay listed under Mus musculus [4] was found to be 134%. Besides, in the assay listed under Mus musculus [5], the inhibition at 2 µM was 81%. In addition, in the assay listed under Mus musculus [6], the inhibition at 5 µM turned out to be 109%.
Take `C[C@]12CC[C@]3(C1)[C@@H](C[C@@H](O)[C@H]1[C@](C)(CO)CCC[C@@]13C)C[C@@H]2O`: the Inhibition in the assay filed under Mus musculus [1] is on record as -5%; in the assay filed under Mus musculus [2], -25%; in the assay listed under Mus musculus [3], -4%.
For the compound `C[C@]12CC[C@]3(C1)[C@H](C/C2=N\O)C[C@@H](OC(=O)c1ccccc1)[C@H]1[C@](C)(C(=O)O)CCC[C@@]13C`, the Inhibition in the assay listed under Mus musculus [1] is on record as 28%; in the assay listed under Mus musculus [2], 66%; in the assay listed under Mus musculus [3] it was 90%.
With `CC(=O)O[C@@H]1C[C@@H]2C[C@@H](OC(=O)c3ccccc3)[C@H]3[C@](C)(C(=O)O)CCC[C@]3(C)[C@]23CC[C@@]1(C)C3`, the Inhibition in the assay filed under Mus musculus [1] was determined as 27%; in the assay filed under Mus musculus [2] it was 26%; in the assay filed under Mus musculus [3] it was 42%. Moreover, the inhibition at 10 µM in the assay filed under Mus musculus [4] worked out at 79%. In addition, the inhibition at 2 µM in the assay filed under Mus musculus [5] amounted to 55%. In addition, in the assay filed under Mus musculus [6], the inhibition at 5 µM was found to be 72%.
Regarding `C[C@@]1(CO)CCC[C@@]2(C)C1[C@H](OC(=O)c1ccccc1)C[C@H]1C[C@@H](O)[C@@]3(C)CC[C@]12C3` (stereo partly drawn), the Inhibition in the assay filed under Mus musculus [1] is -60%; in the assay filed under Mus musculus [2] it was 95%. Besides, in the assay listed under Mus musculus [4], the inhibition at 10 µM stood at 105%. Further, in the assay listed under Mus musculus [5], the inhibition at 2 µM was 17%. In addition, the inhibition at 5 µM in the assay listed under Mus musculus [6] amounted to 87%.
